Source: patent US20250064941A1, “SIGLEC LIGANDS, CONJUGATES, AND METHODS OF USE THEREOF” (Osprey Biopharmaceuticals, Inc., priority 2023, published 2025)

Tests used:
[1] = target: T1, human Siglec-2/CD22 protein (Homo sapiens, UniProt P20273); experiment: SPR binding affinity to human CD22; conditions: steady-state analysis
T1 construct: purchased Acro Biosystems SI2-H82E3
T1 sequence (P20273 20-847): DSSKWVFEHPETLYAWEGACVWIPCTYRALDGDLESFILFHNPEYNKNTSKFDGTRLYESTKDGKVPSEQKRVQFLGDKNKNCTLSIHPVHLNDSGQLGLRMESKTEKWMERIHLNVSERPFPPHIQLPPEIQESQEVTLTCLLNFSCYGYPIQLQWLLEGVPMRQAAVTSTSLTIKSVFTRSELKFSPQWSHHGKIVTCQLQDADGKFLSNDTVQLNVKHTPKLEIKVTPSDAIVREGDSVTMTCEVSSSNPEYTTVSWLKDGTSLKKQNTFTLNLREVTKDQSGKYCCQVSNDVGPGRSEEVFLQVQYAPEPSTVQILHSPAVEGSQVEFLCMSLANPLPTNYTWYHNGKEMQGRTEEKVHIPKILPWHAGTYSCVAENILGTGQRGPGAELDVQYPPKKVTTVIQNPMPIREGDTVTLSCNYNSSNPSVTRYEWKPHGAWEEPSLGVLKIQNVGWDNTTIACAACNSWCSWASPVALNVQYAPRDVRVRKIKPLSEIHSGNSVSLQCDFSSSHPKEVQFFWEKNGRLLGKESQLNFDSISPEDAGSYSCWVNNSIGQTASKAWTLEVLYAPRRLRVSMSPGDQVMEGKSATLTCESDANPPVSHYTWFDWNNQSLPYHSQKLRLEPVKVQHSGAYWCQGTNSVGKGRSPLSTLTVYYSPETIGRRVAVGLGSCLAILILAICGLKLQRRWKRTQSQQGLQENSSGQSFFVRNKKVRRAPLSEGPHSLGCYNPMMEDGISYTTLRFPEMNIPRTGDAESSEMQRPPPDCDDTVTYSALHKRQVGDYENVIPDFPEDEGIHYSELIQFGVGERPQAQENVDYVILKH
Method in brief: (§1)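 Using a Biacore 8K, compounds were tested against biotinylated CD22 captured after sialidase treatment. The running buffer held 1% DMSO, corrected with a 0.5–2% DMSO series. Affinity was derived by steady-state analysis.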

[2] = target: T2, mouse Siglec-2-Fc-Avi (CD22) (Mus musculus, UniProt P35329); experiment: SPR binding affinity to mouse CD22; conditions: steady-state analysis
T2 construct: made in house
T2 sequence (P35329 22-708 limits assumed): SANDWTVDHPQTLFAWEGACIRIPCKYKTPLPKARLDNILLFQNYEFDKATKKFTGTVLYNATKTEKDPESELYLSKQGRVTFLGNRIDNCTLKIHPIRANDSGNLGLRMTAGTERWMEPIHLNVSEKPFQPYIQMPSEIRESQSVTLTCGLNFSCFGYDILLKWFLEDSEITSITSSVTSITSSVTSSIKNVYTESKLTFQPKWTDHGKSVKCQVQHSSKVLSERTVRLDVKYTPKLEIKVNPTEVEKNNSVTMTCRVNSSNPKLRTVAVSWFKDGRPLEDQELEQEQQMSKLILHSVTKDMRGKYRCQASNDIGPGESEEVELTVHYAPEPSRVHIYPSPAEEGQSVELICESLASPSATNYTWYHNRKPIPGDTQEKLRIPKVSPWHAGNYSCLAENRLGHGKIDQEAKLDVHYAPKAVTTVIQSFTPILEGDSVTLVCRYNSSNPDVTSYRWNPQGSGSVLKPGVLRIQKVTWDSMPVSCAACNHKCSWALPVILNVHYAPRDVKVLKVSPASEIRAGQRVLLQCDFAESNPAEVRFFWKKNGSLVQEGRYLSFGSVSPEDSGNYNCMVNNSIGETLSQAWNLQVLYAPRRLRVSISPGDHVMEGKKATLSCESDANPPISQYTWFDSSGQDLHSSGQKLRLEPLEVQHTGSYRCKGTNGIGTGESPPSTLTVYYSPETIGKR
Method in brief: as §1

[3] = target: cynomolgus Siglec-2/CD22 (Macaca fascicularis, UniProt A0A2K5WCZ6); experiment: biochemical; format: binding; conditions: SPR, steady-state analysis; read-out: Affinity cyno CD22
Method in brief: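 Compound binding measured by steady-state SPR analysis, 120 s dissociation, in HEPES-NaCl-Tween buffer pH 7.5 containing 1% DMSO, DMSO solvent-corrected. Surface: cyno CD22, sialic acids first stripped by SialoExo for 4 h at 37° C., then amine-coupled onto CM5.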

Sequence of cynomolgus Siglec-2/CD22 (A0A2K5WCZ6 entry or part of it): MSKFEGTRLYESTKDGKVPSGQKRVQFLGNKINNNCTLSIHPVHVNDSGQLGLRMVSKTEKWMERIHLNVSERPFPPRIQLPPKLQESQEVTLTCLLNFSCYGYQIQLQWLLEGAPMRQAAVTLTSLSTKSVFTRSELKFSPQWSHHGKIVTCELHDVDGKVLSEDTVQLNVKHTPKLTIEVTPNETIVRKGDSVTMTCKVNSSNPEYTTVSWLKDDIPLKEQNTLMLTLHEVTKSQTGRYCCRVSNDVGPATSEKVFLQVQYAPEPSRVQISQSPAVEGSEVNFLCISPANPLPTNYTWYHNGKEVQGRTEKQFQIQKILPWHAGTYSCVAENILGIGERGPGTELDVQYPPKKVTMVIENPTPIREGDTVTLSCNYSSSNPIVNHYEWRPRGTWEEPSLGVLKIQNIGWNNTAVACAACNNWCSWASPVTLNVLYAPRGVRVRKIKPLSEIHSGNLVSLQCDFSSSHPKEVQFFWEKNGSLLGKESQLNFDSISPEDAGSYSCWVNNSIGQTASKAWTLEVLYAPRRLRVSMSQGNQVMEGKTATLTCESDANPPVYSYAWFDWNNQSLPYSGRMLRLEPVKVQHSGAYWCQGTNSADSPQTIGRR

Kd [1]	Kd [2]	Kd [3]	SMILES
< 1000 nM	1000 to 10000 nM	< 1000 nM	CC(=O)NCCOCCOCCOCCOCCNC(=O)CCCCCCO[C@]1(C(=O)O)C[C@H](O)[C@@H](NC(=O)CO)[C@H]([C@H](O)[C@H](O)CNC(=O)Cc2ccc(Cl)cc2)O1 [Compound 264, (2R,4S,5R,6R)-6-((1R,2R)-3-(2-(4-chlorophenyl)acetamido)-1,2-dihydroxypropyl)-2-((2,19-dioxo-6,9,12,15-tetraoxa-3,18-diazapentacosan-25-yl)oxy)-4-hydroxy-5-(2-hydroxyacetamido) tetrahydro-2H-pyran-2-carboxylic acid]
1000 to 10000 nM	1000 to 10000 nM	1000 to 10000 nM	C#CCOCCCCCCO[C@]1(C(=O)O)C[C@H](O)[C@@H](NCC(=O)NC)[C@H]([C@H](O)[C@H](O)CNC(=O)Cc2ccc(Cl)cc2)O1 [Compound 181, (2R,4S,5R,6R)-6-((1R,2R)-3-(2-(4-chlorophenyl)acetamido)-1,2-dihydroxypropyl)-4-hydroxy-5-((2-(methylamino)-2-oxoethyl)amino)-2-((6-(prop-2-yn-1-yloxy)hexyl)oxy)tetrahydro-2H-pyran-2-carboxylic acid]
< 1000 nM	< 1000 nM	< 1000 nM	O=C(Cc1ccc(Cl)cc1)NC[C@@H](O)[C@@H](O)[C@@H]1O[C@@](OCCCCCCNC(=O)c2ccccc2)(C(=O)O)C[C@H](O)[C@H]1NC(=O)CO [Compound 108, (2R,4S,5R,6R)-2-((6-benzamidohexyl)oxy)-6-((1R,2R)-3-(2-(4-chlorophenyl)acetamido)-1,2-dihydroxypropyl)-4-hydroxy-5-(2-hydroxyacetamido)tetrahydro-2H-pyran-2-carboxylic acid]
< 1000 nM	< 1000 nM	< 1000 nM	C#CCCOc1cccc(CO[C@]2(C(=O)O)C[C@H](O)[C@@H](NC(=O)CO)[C@H]([C@H](O)[C@H](O)CNC(=O)Cc3ccc(-c4ccccc4)cc3)O2)c1 [Compound 38, (2R,4S,5R,6R)-6-((1R,2R)-3-(2-([1,1′-biphenyl]-4-yl)acetamido)-1,2-dihydroxypropyl)-2-((3-(but-3-yn-1-yloxy)benzyl)oxy)-4-hydroxy-5-(2-hydroxyacetamido)tetrahydro-2H-pyran-2-carboxylic acid]
1000 to 10000 nM	1000 to 10000 nM	1000 to 10000 nM	CC(=O)NCCOCCOCCOCCOCCNC(=O)CCOCCO[C@]1(C(=O)O)C[C@H](O)[C@@H](NC(=O)CO)[C@H]([C@H](O)[C@H](O)CNC(=O)Cc2ccc(Cl)cc2)O1 [Compound 239, (2R,4S,5R,6R)-6-((1R,2R)-3-(2-(4-chlorophenyl)acetamido)-1,2-dihydroxypropyl)-2-((2,19-dioxo-6,9,12,15,22-pentaoxa-3,18-diazatetracosan-24-yl)oxy)-4-hydroxy-5-(2-hydroxyacetamido) tetrahydro-2H-pyran-2-carboxylic acid]
< 1000 nM	1000 to 10000 nM	< 1000 nM	C#CCOCCOCCNc1c(NCCCCCCO[C@]2(C(=O)O)C[C@H](O)[C@@H](NC(=O)CO)[C@H]([C@H](O)[C@H](O)CNC(=O)C(F)(F)c3ccccc3)O2)c(=O)c1=O [Compound 275, (2R,4S,5R,6R)-6-((1R,2R)-3-(2,2-difluoro-2-phenylacetamido)-1,2-dihydroxypropyl)-2-((6-((3,4-dioxo-2-((2-(2-(prop-2-yn-1-yloxy)ethoxy)ethyl)amino)cyclobut-1-en-1-yl)amino)hexyl)oxy)-4-hydroxy-5-(2-hydroxyacetamido) tetrahydro-2H-pyran-2-carboxylic acid]
< 1000 nM	1000 to 10000 nM	1000 to 10000 nM	C#CCOCCCCCCO[C@]1(C(=O)O)C[C@H](O)[C@@H](NC(=S)NC)[C@H]([C@H](O)[C@H](O)CNC(=O)Cc2ccc(Cl)cc2)O1 [Compound 84, (2R,4S,5R,6R)-6-((1R,2R)-3-(2-(4-chlorophenyl)acetamido)-1,2-dihydroxypropyl)-4-hydroxy-5-(3-methylthioureido)-2-((6-(prop-2-yn-1-yloxy)hexyl)oxy)tetrahydro-2H-pyran-2-carboxylic acid]
< 1000 nM	< 1000 nM	< 1000 nM	CC(=O)NCCOCCOCCOCCOCCn1cc(CCCCCCO[C@]2(C(=O)O)C[C@H](O)[C@@H](NC(=O)CO)[C@H]([C@H](O)[C@H](O)CNC(=O)Cc3ccc(C(F)F)cc3)O2)nn1 [Compound 253, (2R,4S,5R,6R)-6-((1R,2R)-3-(2-(4-(difluoromethyl)phenyl)acetamido)-1,2-dihydroxypropyl)-4-hydroxy-5-(2-hydroxyacetamido)-2-((6-(1-(2-oxo-6,9,12,15-tetraoxa-3-azaheptadecan-17-yl)-1H-1,2,3-triazol-4-yl)hexyl)oxy)tetrahydro-2H-pyran-2-carboxylic acid]
1000 to 10000 nM	1000 to 10000 nM	< 1000 nM	C#CCOCCCCCCO[C@]1(C(=O)O)C[C@H](O)[C@@H](NC(=O)CO)[C@H]([C@H](O)[C@H](O)CNC(=O)Cc2cccc(O)c2)O1 [Compound 144, (2R,4S,5R,6R)-6-((1R,2R)-1,2-dihydroxy-3-(2-(3-hydroxyphenyl)acetamido)propyl)-4-hydroxy-5-(2-hydroxyacetamido)-2-((6-(prop-2-yn-1-yloxy)hexyl)oxy)tetrahydro-2H-pyran-2-carboxylic acid]
< 1000 nM	1000 to 10000 nM	1000 to 10000 nM	C#CCOc1ccc(-c2cn([C@]3(C(=O)O)C[C@H](O)[C@@H](NC(=O)CO)[C@H]([C@H](O)[C@H](O)CNC(=O)Cc4ccc(-c5ccc(O)cc5)cc4)O3)nn2)cc1 [Compound 53, (2R,4S,5R,6R)-6-((1R,2R)-1,2-dihydroxy-3-(2-(4′-hydroxy-[1,1′-biphenyl]-4-yl)acetamido)propyl)-4-hydroxy-5-(2-hydroxyacetamido)-2-(4-(4-(prop-2-yn-1-yloxy)phenyl)-1H-1,2,3-triazol-1-yl)tetrahydro-2H-pyran-2-carboxylic acid]
< 1000 nM	1000 to 10000 nM	1000 to 10000 nM	C#CCOCCOCCO[C@]1(C(=O)O)C[C@H](O)[C@@H](NC(=O)CO)[C@H]([C@H](O)[C@H](O)CNC(=O)c2cccc(Oc3ccc(O)cc3)c2)O1 [Compound 18, (2R,4S,5R,6R)-6-((1R,2R)-1,2-dihydroxy-3-(3-(4-hydroxyphenoxy)benzamido)propyl)-4-hydroxy-5-(2-hydroxyacetamido)-2-(2-(2-(prop-2-yn-1-yloxy)ethoxy)ethoxy)tetrahydro-2H-pyran-2-carboxylic acid]
< 1000 nM	1000 to 10000 nM	< 1000 nM	C#CCCOc1ccc(CS[C@]2(C(=O)O)C[C@H](O)[C@@H](NC(=O)CO)[C@H]([C@H](O)[C@H](O)CNC(=O)Cc3cccc(Cl)c3)O2)cc1 [Compound 120, (2S,4S,5R,6R)-2-((4-(but-3-yn-1-yloxy)benzyl)thio)-6-((1R,2R)-3-(2-(3-chlorophenyl)acetamido)-1,2-dihydroxypropyl)-4-hydroxy-5-(2-hydroxyacetamido)tetrahydro-2H-pyran-2-carboxylic acid]
